Test results from US7473688B2, “Indolobenzazepine HCV NS5B inhibitors” (Bristol-Myers Squibb Company, priority 2005, dated 2009).
Read-outs that look alike come from different tables or passages of the source.

Tests used:
HCV replicon = HCV replicon FRET assay; type: cell-based; details: Hepatitis C virus, FRET assay, read-out: EC50*
Summary of the method: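 HCV replicon cells, with or without Renilla luciferase reporter, incubated with titrated compounds at 37 °C; Alamar blue read for cytotoxicity. NS3 protease activity read from lysates with 20 μM EDANS/DABCYL FRET peptide (340/490 nm, kinetic), or by Dual-Glo luciferase. Background from highest protease-inhibitor wells; EC50 = 50% signal reduction.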

HCV NS5B = biological target: T1, HCV NS5B (Hepatitis C virus genotype 1b, UniProt Q9WMX2); assay: HCV NS5B RdRp enzyme assay (preincubation protocol); type: biochemical
T1 construct: The protein was expressed with an 18 amino acid C-terminal truncation to enhance the solubility; made in house; host or cells: E. coli BL21 (DE3), pET21a
T1 sequence (Q9WMX2 2420-2992): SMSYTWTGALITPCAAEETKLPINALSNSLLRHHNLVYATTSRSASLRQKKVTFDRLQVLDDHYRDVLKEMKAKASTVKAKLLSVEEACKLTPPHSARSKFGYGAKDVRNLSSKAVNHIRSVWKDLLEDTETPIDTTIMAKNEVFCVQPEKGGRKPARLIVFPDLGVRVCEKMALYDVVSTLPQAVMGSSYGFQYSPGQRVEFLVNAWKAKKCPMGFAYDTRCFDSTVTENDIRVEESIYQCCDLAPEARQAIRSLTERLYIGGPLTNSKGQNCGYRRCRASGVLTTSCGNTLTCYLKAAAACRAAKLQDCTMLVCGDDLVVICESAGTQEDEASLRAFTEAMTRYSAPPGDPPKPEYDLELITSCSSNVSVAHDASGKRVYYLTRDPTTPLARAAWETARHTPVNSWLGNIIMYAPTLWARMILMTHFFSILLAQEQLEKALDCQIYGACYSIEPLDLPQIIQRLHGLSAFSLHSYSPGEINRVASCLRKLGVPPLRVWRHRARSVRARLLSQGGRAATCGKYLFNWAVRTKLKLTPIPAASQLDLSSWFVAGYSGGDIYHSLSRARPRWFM
Summary of the method: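 Preincubation format: enzyme (14 nM, genotype 1b, 18-residue C-terminal truncation) meets diluted compound first; reaction started with bead-bound biotinylated dT12 primer, polyA template 0.2 nM and 0.29 μM 3H-UTP. Run 4 h, 30 °C in Hepes pH 7.5; scintillation proximity signal; IC50 fitted from seven inhibitor levels.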

Row | SMILES | EC50 (HCV replicon; Table 1b) [nM] | IC50 (HCV NS5B; Table 1b, read-out: IC50*) [nM] | EC50 (HCV replicon; Table 1) [nM] | IC50 (HCV NS5B; Table 1, read-out: IC50*) [nM]
1 | COc1ccc2c(c1)C=C(C(=O)N(C)[C@H](C(=O)N(C)C)C(C)C)Cn1c-2c(C2CCCCC2)c2ccc(C(=O)NS(=O)(=O)N(C)C)cc21 | 30 to 1000 | < 20 | – | –
2 | COc1ccc2c(c1)C=C(C(=O)N(C)[C@H](C(=O)N1CCOCC1)C(C)C)Cn1c-2c(C2CCCCC2)c2ccc(C(=O)NS(=O)(=O)N(C)C)cc21 | 30 to 1000 | 20 to 1000 | – | –
3 | COc1ccc2c(c1)C=C(C(=O)N(C)Cc1ccco1)Cn1c-2c(C2CCCCC2)c2ccc(C(=O)NS(=O)(=O)N(C)C)cc21 | 30 to 1000 | < 20 | – | –
4 | COc1ccc2c(c1)C=C(C(=O)N(C)Cc1nccs1)Cn1c-2c(C2CCCCC2)c2ccc(C(=O)NS(=O)(=O)N(C)C)cc21 | 30 to 1000 | < 20 | – | –
5 | COc1ccc2c(c1)C=C(C(=O)N(CC(=O)N(C)C)CC(=O)N(C)C)Cn1c-2c(C2CCCCC2)c2ccc(C(=O)NS(=O)(=O)N(C)C)cc21 | 30 to 1000 | < 20 | – | –
6 | COc1ccc2c(c1)C=C(C(=O)N(C)[C@H](C)C(=O)O)Cn1c-2c(C2CCCCC2)c2ccc(C(=O)NS(=O)(=O)N(C)C)cc21 | 30 to 1000 | 20 to 1000 | – | –
7 | COC(=O)c1ccc2c(C3CCCCC3)c3n(c2c1)CC(C(=O)N1CCOC(CO)C1)=Cc1c(OC)cccc1-3 (centres unmarked) | > 10000 | > 12500 | – | –
8 | COc1cccc2c1C=C(C(=O)N1CCOC(CO)C1)Cn1c-2c(C2CCCCC2)c2ccc(C(=O)O)cc21 (centres unmarked) | 30 to 1000 | 20 to 1000 | – | –
9 | COC(=O)c1ccc2c(C3CCCCC3)c3n(c2c1)CC(C(=O)N1C[C@@H](C)N[C@@H](C)C1)=Cc1c(OC)cccc1-3 | > 370 | 20 to 1000 | – | –
10 | COc1cccc2c1C=C(C(=O)N1C[C@@H](C)N[C@@H](C)C1)Cn1c-2c(C2CCCCC2)c2ccc(C(=O)O)cc21 | 30 to 1000 | 20 to 1000 | – | –
11 | CN(C)C(=O)CN(C)C(=O)C1=Cc2ccccc2-c2c(C3CCCCC3)c3ccc(C(=O)Nc4ccccn4)cc3n2C1 | 1000 to 10000 | 20 to 1000 | – | –
12 | COc1ccc2c(c1)C=C(C(=O)N(C)CC(=O)N(C)C)Cn1c-2c(C2CCCCC2)c2ccc(C(=O)N(C)CC(=O)N(C)C)cc21 | 1000 to 10000 | 20 to 1000 | – | –
13 | COc1ccc2c(c1)C=C(C(=O)N1CC(NC(=O)OC(C)(C)C)C1)Cn1c-2c(C2CCCCC2)c2ccc(C(=O)NS(=O)(=O)N(C)C)cc21 | 30 to 1000 | 20 to 1000 | – | –
14 | COc1ccc2c(c1)C=C(C(=O)N1CCN(CCO)CC1)Cn1c-2c(C2CCCCC2)c2ccc(C(=O)NS(=O)(=O)N(C)C)cc21 | 30 to 1000 | 20 to 1000 | – | –
15 | COc1ccc2c(c1)C=C(C(=O)N1CCC(CO)CC1)Cn1c-2c(C2CCCCC2)c2ccc(C(=O)NS(=O)(=O)N(C)C)cc21 | 30 to 1000 | 20 to 1000 | – | –
16 | COc1ccc2c(c1)C=C(C(=O)N1CC(O)C1)Cn1c-2c(C2CCCCC2)c2ccc(C(=O)NS(=O)(=O)N(C)C)cc21 | 30 to 1000 | 20 to 1000 | – | –
17 | COc1ccc2c(c1)C=C(C(=O)N1CC(OP(=O)(O)O)C1)Cn1c-2c(C2CCCCC2)c2ccc(C(=O)NS(=O)(=O)N(C)C)cc21 | 1000 to 10000 | 20 to 1000 | – | –
18 | COc1ccc2c(c1)C=C(C(=O)N1CC(OP(=O)(OC(C)(C)C)OC(C)(C)C)C1)Cn1c-2c(C2CCCCC2)c2ccc(C(=O)NS(=O)(=O)N(C)C)cc21 | 30 to 1000 | 20 to 1000 | – | –
19 | COc1ccc2c(c1)C=C(C(=O)N1CC(N)C1)Cn1c-2c(C2CCCCC2)c2ccc(C(=O)NS(=O)(=O)N(C)C)cc21 | 30 to 1000 | 20 to 1000 | – | –
20 | COc1ccc2c(c1)CC(C(=O)N1CCN(CCO)CC1)Cn1c-2c(C2CCCCC2)c2ccc(C(=O)NS(=O)(=O)N(C)C)cc21 (centres unmarked) | 30 to 1000 | 20 to 1000 | – | –
21 | COc1ccc2c(c1)CC(C(=O)N1CCC(CO)CC1)Cn1c-2c(C2CCCCC2)c2ccc(C(=O)NS(=O)(=O)N(C)C)cc21 (centres unmarked) | 30 to 1000 | 20 to 1000 | – | –
22 | COc1ccc2c(c1)C=C(C(=O)N1CC(CO)C1)Cn1c-2c(C2CCCCC2)c2ccc(C(=O)NS(=O)(=O)N(C)C)cc21 | 30 to 1000 | 20 to 1000 | – | –
23 | COc1ccc2c(c1)C=C(C(=O)N1C[C@@H](C)N(CC3CC3)[C@@H](C)C1)Cn1c-2c(C2CCCCC2)c2ccc(C(=O)NS(=O)(=O)N(C)C)cc21 | 30 to 1000 | 20 to 1000 | – | –
24 | COc1ccc2c(c1)C[C@H](NC(=O)N(C)CC(=O)N(C)C)Cn1c-2c(C2CCCCC2)c2ccc(C(=O)NS(=O)(=O)N(C)C)cc21 | 30 to 1000 | 20 to 1000 | – | –
25 | COc1ccc2c(c1)C[C@@H](NC(=O)N(C)CC(=O)N(C)C)Cn1c-2c(C2CCCCC2)c2ccc(C(=O)NS(=O)(=O)N(C)C)cc21 | 30 to 1000 | 20 to 1000 | – | –
26 | COc1ccc2c(c1)CC(C(=O)N1CC(CO)C1)Cn1c-2c(C2CCCCC2)c2ccc(C(=O)NS(=O)(=O)N(C)C)cc21 (centres unmarked) | 30 to 1000 | 20 to 1000 | – | –

Row | SMILES | EC50 (HCV replicon; Table 1b) [nM] | IC50 (HCV NS5B; Table 1b, read-out: IC50*) [nM] | EC50 (HCV replicon; Table 1) [nM] | IC50 (HCV NS5B; Table 1, read-out: IC50*) [nM]
27 | COc1ccc2c(c1)C=C(C(=O)N1CC(N(C)C)C1)Cn1c-2c(C2CCCCC2)c2ccc(C(=O)NS(=O)(=O)N(C)C)cc21 | 30 to 1000 | 20 to 1000 | – | –
28 | COc1ccc2c(c1)C=C(C(=O)N(C)Cc1ccccn1)Cn1c-2c(C2CCCCC2)c2ccc(C(=O)NS(=O)(=O)N(C)C)cc21 | 30 to 1000 | 20 to 1000 | – | –
29 | COc1ccc2c(c1)C=C(C(=O)N1CCN(CCOCCO)CC1)Cn1c-2c(C2CCCCC2)c2ccc(C(=O)NS(=O)(=O)N(C)C)cc21 | 30 to 1000 | 20 to 1000 | – | –
30 | COc1ccc2c(c1)CC(C(=O)N1CC(N(C)C)C1)Cn1c-2c(C2CCCCC2)c2ccc(C(=O)NS(=O)(=O)N(C)C)cc21 (centres unmarked) | 30 to 1000 | 20 to 1000 | – | –
31 | COc1ccc2c(c1)C=C(C(=O)O)Cn1c-2c(C2CCCCC2)c2ccc(C(=O)NS(=O)(=O)N3CCN(C(C)=O)CC3)cc21 | > 10000 | 20 to 1000 | – | –
32 | COc1ccc2c(c1)C=C(C(=O)N[C@@H]1C3CCC(C)([C@@H]1O)C3(C)C)Cn1c-2c(C2CCCCC2)c2ccc(C(=O)NS(=O)(=O)N(C)C)cc21 (some centres unmarked) | 30 to 1000 | 20 to 1000 | – | –
33 | COc1ccc2c(c1)C=C(C(=O)N1CCN(c3ccccn3)CC1)Cn1c-2c(C2CCCCC2)c2ccc(C(=O)NS(=O)(=O)N(C)C)cc21 | 30 to 1000 | 20 to 1000 | – | –
34 | COc1ccc2c(c1)C=C(C(=O)N1CCN(c3ncccn3)CC1)Cn1c-2c(C2CCCCC2)c2ccc(C(=O)NS(=O)(=O)N(C)C)cc21 | 30 to 1000 | < 20 | – | –
35 | COc1ccc2c(c1)CC(C(=O)N1CCN(CCOCCO)CC1)Cn1c-2c(C2CCCCC2)c2ccc(C(=O)NS(=O)(=O)N(C)C)cc21 (centres unmarked) | 30 to 1000 | 20 to 1000 | – | –
36 | COc1ccc2c(c1)C=C(C(=O)N1CCN(C(=O)C(C)(C)O)CC1)Cn1c-2c(C2CCCCC2)c2ccc(C(=O)NS(=O)(=O)N(C)C)cc21 | 30 to 1000 | 20 to 1000 | – | –
37 | COc1ccc2c(c1)C=C(C(=O)N1C[C@@H](C)O[C@@H](C)C1)Cn1c-2c(C2CCCCC2)c2ccc(C(=O)NS(=O)(=O)N3CCCC3)cc21 | 30 to 1000 | 20 to 1000 | – | –
38 | COc1ccc2c(c1)C=C(C(=O)N1CCOCC1)Cn1c-2c(C2CCCCC2)c2ccc(C(=O)NS(=O)(=O)N3CCC3)cc21 | 30 to 1000 | 20 to 1000 | – | –
39 | COc1ccc2c(c1)C=C(C(=O)N1CCOCC1)Cn1c-2c(C2CCCCC2)c2ccc(C(=O)NS(=O)(=O)N3CCCC3)cc21 | 30 to 1000 | 20 to 1000 | – | –
40 | COc1ccc2c(c1)C=C(C(=O)N1C[C@@H](C)O[C@@H](C)C1)Cn1c-2c(C2CCCCC2)c2ccc(C(=O)NS(=O)(=O)N3CCC3)cc21 | 30 to 1000 | 20 to 1000 | – | –
41 | COc1ccc2c(c1)C=C(C(=O)N1CCOCC1)Cn1c-2c(C2CCCCC2)c2ccc(C(=O)NS(=O)(=O)c3ccc(C)cn3)cc21 | 30 to 1000 | 20 to 1000 | – | –
42 | COc1ccc2c(c1)C=C(C(=O)N1C[C@@H](C)O[C@@H](C)C1)Cn1c-2c(C2CCCCC2)c2ccc(C(=O)NS(=O)(=O)c3ccc(C)cn3)cc21 | 30 to 1000 | 20 to 1000 | – | –
43 | COC[C@H]1CN(C(=O)C2=Cc3cc(OC)ccc3-c3c(C4CCCCC4)c4ccc(C(=O)NS(=O)(=O)N(C)C)cc4n3C2)CCO1 | 30 to 1000 | 20 to 1000 | – | –
44 | COC[C@@H]1CN(C(=O)C2=Cc3cc(OC)ccc3-c3c(C4CCCCC4)c4ccc(C(=O)NS(=O)(=O)N(C)C)cc4n3C2)CCO1 | 30 to 1000 | 20 to 1000 | – | –
45 | CON(C)S(=O)(=O)NC(=O)c1ccc2c(C3CCCCC3)c3n(c2c1)CC(C(=O)N1CCOCC1)=Cc1ccccc1-3 [drawing 100] | – | – | 70 to 1000 | 10 to 1000
46 | COc1ccc2c(c1)C=C(C(=O)N1CCOCC1)Cn1c-2c(C2CCCCC2)c2ccc(C(=O)NS(=O)(=O)N3CCOCC3)cc21 [drawing 102] | – | – | 70 to 1000 | 10 to 1000
47 | C[C@@H]1CN(CCNC(=O)C2=Cc3ccccc3-c3c(C4CCCCC4)c4ccc(C(=O)NS(=O)(=O)N(C)C)cc4n3C2)C[C@H](C)O1 [drawing 130] | – | – | 70 to 1000 | 10 to 1000
48 | CN(C)S(=O)(=O)NC(=O)c1ccc2c(C3CCCCC3)c3n(c2c1)CC(C(=O)N1CCC(N2CCOCC2)CC1)=Cc1cc(OCc2ccccc2)ccc1-3 [drawing 135] | – | – | 70 to 1000 | 10 to 1000
49 | CN(C)S(=O)(=O)NC(=O)c1ccc2c(C3CCCCC3)c3n(c2c1)CC(C(=O)N1CCCC(=O)N1)=Cc1ccccc1-3 [drawing 138] | – | – | 70 to 1000 | 10 to 1000
50 | CN(C)S(=O)(=O)NC(=O)c1ccc2c(C3CCCCC3)c3n(c2c1)CC(NC(=O)N1CCOCC1)Cc1ccccc1-3 (centres unmarked) [drawing 141] | – | – | 70 to 1000 | 10 to 1000
51 | C[C@@H]1CN(C(=O)NC2Cc3ccccc3-c3c(C4CCCCC4)c4ccc(C(=O)O)cc4n3C2)C[C@H](C)O1 (some centres unmarked) [drawing 143] | – | – | 70 to 1000 | 10 to 1000
52 | CC(=O)NN(C)C(=O)C1=Cc2ccccc2-c2c(C3CCCCC3)c3ccc(C(=O)O)cc3n2C1 [drawing 154] | – | – | 1000 to 10000 | 10 to 1000
